Measurements from the supplement of paper PMC8633005.

Legend:
Experiment in all cases: drug sensitivity score (DSS) (DSS (unitless, 0-50 scale)); higher = more sensitive (stronger viability inhibition); extreme values may be limits of the assay
Details in all cases: 72 h; culture: 2D
FM-MEL-2 = tested on: FM-MEL-2
Method in brief: (§1)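 Drug sensitivity scores, modified area-under-curve measures, were derived from dose-response curves fitted in the in-house Breeze software. The curves came from melanoma cell lines and patient-derived melanoma cultures (1000–1500 cells per well) grown in 2D in 384-well plates holding a 527-compound oncology library. Each compound was dissolved in DMSO or water and tested at five concentrations across a 10,000-fold range. Viability was read by CellTiter-Glo luminescence after 72 h at 37 °C.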

SK-MEL-28 = tested on: SK-MEL-28
Method in brief: as §1

WM852 = tested on: WM852
Method in brief: as §1

WM165 = tested on: WM165
Method in brief: as §1

SK-MEL-2 = tested on: SK-MEL-2
Method in brief: as §1

FM-MEL-6 = tested on: FM-MEL-6
Method in brief: as §1

Bowes = tested on: Bowes
Method in brief: as §1

FM-MEL-3 = tested on: FM-MEL-3
Method in brief: as §1

Row | SMILES | drug sensitivity score (FM-MEL-2) | drug sensitivity score (SK-MEL-28) | drug sensitivity score (WM852) | drug sensitivity score (WM165) | drug sensitivity score (SK-MEL-2) | drug sensitivity score (FM-MEL-6) | drug sensitivity score (Bowes) | drug sensitivity score (FM-MEL-3)
1 | N#Cc1ccc2[nH]c(O)c(-c3ccc(CN4CCOCC4)cn3)c2c1 [AZD-1080] | 0 | 0 | 0.6 | 2.2 | 0 | 0 | 0 | 0
2 | Cc1ncc(-c2ccnc(Nc3ccc(S(C)(=O)=O)cc3)n2)n1C(C)C [AZD-5438] | 2.2 | 9.9 | 6.2 | 10.6 | 4.2 | 7 | 10.7 | 4.7
3 | Cc1cc([C@@H](C)Nc2ccccc2C(=O)O)c2nc(N3CCOCC3)cc(=O)n2c1 [AZD-6482] | 1.9 | 3.3 | 0.4 | 0.5 | 0 | 1.4 | 1.2 | 1.7
4 | C[C@@H](Nc1cc(F)cc(F)c1)c1cc(C(=O)N(C)C)cc2c(=O)cc(N3CCOCC3)oc12 [AZD-8186] | 2.4 | 3.7 | 0.8 | 0.4 | 0 | 2.2 | 2.6 | 0
5 | CCN1CCN(Cc2ccc(Nc3ncc(F)c(-c4cc(F)c5nc(C)n(C(C)C)c5c4)n3)nc2)CC1 [Abemaciclib] | 4 | 8.7 | 5.3 | 6.6 | 0 | 0 | 9.6 | 7.2
6 | CN(C)Cc1c(C(=O)NCCOc2ccc(C(=O)NO)cc2)oc2ccccc12 [Abexinostat] | 15.9 | 13 | 9.1 | 17 | 15.9 | 14.7 | 10 | 14.6
7 | C[C@]12CC[C@H](O)CC1=CC[C@@H]1[C@@H]2CC[C@]2(C)C(c3cccnc3)=CC[C@@H]12 [Abiraterone] | 0 | 0 | 0 | 0 | 0 | 0 | 0 | 0
8 | CC#CC(=O)N1CCC[C@H]1c1nc(-c2ccc(C(=O)Nc3ccccn3)cc2)c2c(N)nccn12 [Acalabrutinib] | 1 | 0 | 0 | 0 | 0 | 3.4 | 0 | 2.2
9 | COc1cc(C)c(/C=C/C(C)=C/C=C/C(C)=C/C(=O)O)c(C)c1C [Acitretin] | 0 | 0 | 0 | 0 | 0 | 1.6 | 2.6 | 1.3
10 | CN(C)C/C=C/C(=O)Nc1cc2c(Nc3ccc(F)c(Cl)c3)ncnc2cc1O[C@H]1CCOC1 [Afatinib] | 0 | 0 | 0 | 0 | 0 | 0.3 | 2.2 | 0.5
11 | Cn1ncc(Cl)c1-c1cc(C(=O)N[C@H](CN)Cc2cccc(F)c2)sc1Cl [Afuresertib] | 1.5 | 1 | 0.5 | 1.5 | 0 | 2.3 | 0 | 1.9
12 | COc1cccc2c1C(=O)c1c(O)c3c(c(O)c1C2=O)C[C@@](O)(/C(CO)=N/NC(=O)CCCCCN1C(=O)C=CC1=O)C[C@@H]3O[C@H]1C[C@H](N)[C@H](O)[C@H](C)O1 [Aldoxorubicin] | 6.4 | 8.8 | 5.8 | 15.2 | 6.3 | 8.6 | 4.3 | 8
13 | CCc1cc2c(cc1N1CCC(N3CCOCC3)CC1)C(C)(C)c1[nH]c3cc(C#N)ccc3c1C2=O [Alectinib] | 0.6 | 0 | 0 | 0.2 | 0 | 0 | 0 | 0
14 | COc1cc(Nc2ncc3c(n2)-c2ccc(Cl)cc2C(c2c(F)cccc2OC)=NC3)ccc1C(=O)O [Alisertib] | 0.5 | 3.2 | 0 | 13.7 | 0 | 0.5 | 18.5 | 3.1
15 | Oc1ncnc2[nH]ncc12 [Allopurinol] | 0 | 0 | 0 | 0 | 0 | 0 | 0 | 0
16 | Cc1nc(NC(=O)N2CCC[C@H]2C(N)=O)sc1-c1ccnc(C(C)(C)C(F)(F)F)c1 [Alpelisib] | 2.1 | 1.2 | 1.9 | 0.6 | 0 | 0.7 | 0.3 | 2.7
17 | O=C(Nc1cc(Oc2cc(F)c(NC(=O)C3(C(=O)Nc4ccc(F)cc4)CC3)cc2F)ccn1)C1CC1 [Altiratinib] | 6.2 | 0 | 6.1 | 5 | 0 | 7.7 | 6.4 | 9
